The record followed here is US8895585B2, “Nicotinamide derivative or salt thereof” (FUJIFILM Corporation, priority 2010, dated 2014).

For test [1], the target named is T1, glutathione S-transferase (GST)-fused full-length human Syk protein (Homo sapiens, UniProt P43405).
T1 construct: (GST)-fused full-length human Syk protein; GST (glutathione S-transferase); purchased Carna Biosciences
The experiment in a line: Syk enzyme assay. Format: biochemical. The settings on record: Syk enzyme assay, Test Example 1; read-out: IC50 of Syk-inhibitory activity. An outline of the steps: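 Baculovirus-expressed enzyme (1.2 ng) was preincubated with compound in HEPES pH 7.0/MgCl2/DTT buffer, 2 min shaking then 13 min at room temperature. Biotin-EDPDYEWPSA-NH2 (0.4 μM final) and ATP (27 μM final) were added for 40 min at room temperature. EDTA stop, streptavidin-XL/PT66-K TR-FRET at 615/665 nm gave IC50.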

In the next test the test system is THP-1 cells. Description: TNFα generation assay. Format: cell-based, human. The conditions noted are these: Homo sapiens, THP-1, THP-1 cells; Table 22; read-out: IC50 in TNFα generation assay. An outline of the steps:
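Secreted TNFα in supernatant quantified by ELISA or AlphaLISA after 7 h culture on human IgG-coated wells (10 μg/ml coating). Cells were IFN-γ-differentiated THP-1 (10 ng/ml, 2 days), exposed to compound for 30 min at room temperature before plating.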

The structures appear in SMILES notation. pIC50: −log10 of the molar value. A value given as a limit tells only on which side of the number the result lay.

Consider `CC[C@@H](Nc1nc(Nc2ccnc(-c3cccc(OC)c3F)c2)c(C(N)=O)cc1F)[C@H](C)N` [Example 006-281, 6-(((2S,3R)-2-aminopentan-3-yl)amino)-5-fluoro-2-((2-(2-fluoro-3-methoxyphenyl)pyridin-4-yl)amino)nicotinamide], for which the pIC50 was greater than 8.00 in test [1] and greater than 7.19 in the test with THP-1 cells.

In the case of `Cn1ncc2cc(Nc3nc(N[C@@H](CN)CC4CC4)c(F)cc3C(N)=O)ccc21` [Example 006-282, (R)-6-((1-amino-3-cyclopropylpropan-2-yl)amino)-5-fluoro-2-((1-methyl-1H-indazol-5-yl)amino)nicotinamide], the results for the pIC50 (in test [1]; in the test with THP-1 cells) were greater than 8.00 and greater than 7.19, respectively.

Regarding `CCC[C@@H](Nc1nc(Nc2cncc(-c3cccc(OC)c3)c2)c(C(N)=O)cc1F)[C@H](C)N` [Example 006-284, 6-(((2S,3R)-2-aminohexan-3-yl)amino)-5-fluoro-2-((5-(3-methoxyphenyl)pyridin-3-yl)amino)nicotinamide], the values for the pIC50 (in test [1]; in the test on THP-1 cells) were greater than 8.00 and 6.70 to 6.89, respectively.

Take `CCC[C@@H](Nc1nc(Nc2cncc(-c3ccc(OC)cc3)c2)c(C(N)=O)cc1F)[C@H](C)N` [Example 006-285, 6-(((2S,3R)-2-aminohexan-3-yl)amino)-5-fluoro-2-((5-(4-methoxyphenyl)pyridin-3-yl)amino)nicotinamide]: the pIC50 in test [1] is greater than 8.00; in the test with THP-1 cells it was 6.89 to 7.19.

Turning to `CCC[C@@H](Nc1nc(Nc2cncc(-c3cccc(OC)c3F)c2)c(C(N)=O)cc1F)[C@H](C)N` [Example 006-286, 6-(((2S,3R)-2-aminohexan-3-yl)amino)-5-fluoro-2-((5-(2-fluoro-3-methoxyphenyl)pyridin-3-yl)amino)nicotinamide], the figures for the pIC50 (in test [1]; in the test with THP-1 cells) were greater than 8.00 and greater than 7.19, respectively.

On to `CCC[C@@H](Nc1nc(Nc2cncc(-c3ccc(OC)cc3F)c2)c(C(N)=O)cc1F)[C@H](C)N` [Example 006-287, 6-(((2S,3R)-2-aminohexan-3-yl)amino)-5-fluoro-2-((5-(2-fluoro-4-methoxyphenyl)pyridin-3-yl)amino)nicotinamide], for which the pIC50 is greater than 8.00 in test [1] and 6.89 to 7.19 in the test with THP-1 cells.

For `CCC[C@@H](Nc1nc(Nc2cncc(-c3cc(OC)ccc3F)c2)c(C(N)=O)cc1F)[C@H](C)N` [Example 006-288], the pIC50 in test [1] is greater than 8.00; with THP-1 cells, 6.70 to 6.89.

Turning to `CCC[C@@H](Nc1nc(Nc2ccnc(-c3cccc(OC)c3F)c2)c(C(N)=O)cc1F)[C@H](C)N` [Example 006-289, 6-(((2S,3R)-2-aminohexan-3-yl)amino)-5-fluoro-2-((2-(2-fluoro-3-methoxyphenyl)pyridin-4-yl)amino)nicotinamide], the results for the pIC50 (in test [1]; in the test on THP-1 cells) were greater than 8.00 and greater than 7.19, respectively.

For the molecule `CCC[C@@H](Nc1nc(Nc2ccnc(-c3cc(OC)ccc3F)c2)c(C(N)=O)cc1F)[C@H](C)N` [Example 006-290, 6-(((2S,3R)-2-aminohexan-3-yl)amino)-5-fluoro-2-((2-(2-fluoro-5-methoxyphenyl)pyridin-4-yl)amino)nicotinamide], the pIC50 in test [1] was greater than 8.00; in the test with THP-1 cells it was greater than 7.19.

Turning to `COc1ccc(-c2cncc(Nc3nc(N[C@@H](CN)CC(C)C)c(F)cc3C(N)=O)c2)cc1` [Example 006-291, (R)-6-((1-amino-4-methylpentan-2-yl)amino)-5-fluoro-2-((5-(4-methoxyphenyl)pyridin-3-yl)amino)nicotinamide], the pIC50 is 7.30 to 8.00 in test [1] and 6.70 to 6.89 in the test on THP-1 cells.

For `CCCC[C@H](CN)Nc1nc(Nc2cnc3cc(OC)ccc3c2)c(C(N)=O)cc1F` [Example 006-293, (R)-6-((1-aminohexan-2-yl)amino)-5-fluoro-2-((7-methoxyquinolin-3-yl)amino)nicotinamide], the pIC50 in test [1] was greater than 8.00; in the test with THP-1 cells it was 6.89 to 7.19.

For `CCCC[C@H](CN)Nc1nc(Nc2cncc(-n3cccn3)c2)c(C(N)=O)cc1F` [Example 006-294, (R)-2-((5-(1H-pyrazol-1-yl)pyridin-3-yl)amino)-6-((1-aminohexan-2-yl)amino)-5-fluoronicotinamide], the pIC50 in test [1] was 7.30 to 8.00; in the test on THP-1 cells, 6.89 to 7.19.

Take `CCCC[C@H](CN)Nc1nc(Nc2cncc(-c3ccccc3)c2)c(C(N)=O)cc1F` [Example 006-295, (R)-6-((1-aminohexan-2-yl)amino)-5-fluoro-2-((5-phenylpyridin-3-yl)amino)nicotinamide]: the pIC50 in test [1] was 7.30 to 8.00; with THP-1 cells it was 6.70 to 6.89.

In the case of `CCC[C@@H](Nc1nc(Nc2cnc(C)c(C)c2)c(C(N)=O)cc1F)[C@H](C)N` [Example 006-296, 6-(((2S,3R)-2-aminohexan-3-yl)amino)-2-((5,6-dimethylpyridin-3-yl)amino)-5-fluoronicotinamide], the pIC50 in test [1] was greater than 8.00; in the test with THP-1 cells, 6.89 to 7.19.

In the case of `CCC[C@@H](Nc1nc(Nc2cncc(Cl)c2)c(C(N)=O)cc1F)[C@H](C)N` [Example 006-297, 6-(((2S,3R)-2-aminohexan-3-yl)amino)-2-((5-chloropyridin-3-yl)amino)-5-fluoronicotinamide], the pIC50 in test [1] was greater than 8.00; in the test on THP-1 cells it was 6.89 to 7.19.

As to `CCC[C@@H](Nc1nc(Nc2cncc(-n3nccn3)c2)c(C(N)=O)cc1F)[C@H](C)N` [Example 006-298, 2-((5-(2H-1,2,3-triazol-2-yl)pyridin-3-yl)amino)-6-(((2S,3R)-2-aminohexan-3-yl)amino)-5-fluoronicotinamide], the values for the pIC50 (in test [1]; in the test on THP-1 cells) were greater than 8.00 and greater than 7.19, respectively.

Turning to `CCC[C@@H](Nc1nc(Nc2ccnc(-n3ccnn3)c2)c(C(N)=O)cc1F)[C@H](C)N` [Example 006-299, 2-((2-(1H-1,2,3-triazol-1-yl)pyridin-4-yl)amino)-6-(((2S,3R)-2-aminohexan-3-yl)amino)-5-fluoronicotinamide], the pIC50 in test [1] is greater than 8.00; in the test on THP-1 cells, greater than 7.19.

Take `CCC[C@@H](Nc1nc(Nc2ccnc(-n3cncn3)c2)c(C(N)=O)cc1F)[C@H](C)N` [Example 006-300, 2-((2-(1H-1,2,4-triazol-1-yl)pyridin-4-yl)amino)-6-(((2S,3R)-2-aminohexan-3-yl)amino)-5-fluoronicotinamide]: the figures for the pIC50 (in test [1]; in the test on THP-1 cells) were greater than 8.00 and greater than 7.19, respectively.

Consider `CCC[C@@H](Nc1nc(Nc2ccc(C)nc2)c(C(N)=O)cc1F)[C@H](C)N` [Example 006-302, 6-(((2S,3R)-2-aminohexan-3-yl)amino)-5-fluoro-2-((6-methylpyridin-3-yl)amino)nicotinamide], for which the pIC50 in test [1] is 7.30 to 8.00; with THP-1 cells, 6.70 to 6.89.

With `CCC[C@@H](Nc1nc(Nc2ccc3nc(OCCOC)ccc3c2)c(C(N)=O)cc1F)[C@H](C)N` [Example 006-303, 6-(((2S,3R)-2-aminohexan-3-yl)amino)-5-fluoro-2-((2-(2-methoxyethoxy)quinolin-6-yl)amino)nicotinamide], the pIC50 in test [1] was greater than 8.00; in the test with THP-1 cells it was 6.70 to 6.89.

Take `NCC(CCC(F)(F)F)Nc1nc(Nc2ccc3ncccc3c2)c(C(N)=O)cc1F` (centres unmarked) [Example 006-304, 6-((1-amino-5,5,5-trifluoropentan-2-yl)amino)-5-fluoro-2-((quinolin-6-yl)amino)nicotinamide]: the pIC50 in test [1] was greater than 8.00; in the test on THP-1 cells, 6.70 to 6.89.

`CCC[C@@H](Nc1nc(Nc2ccc3nc(C)c(C)nc3c2)c(C(N)=O)cc1F)[C@H](C)N` [Example 006-306, 6-(((2S,3R)-2-aminohexan-3-yl)amino)-2-((2,3-dimethylquinoxalin-6-yl)amino)-5-fluoronicotinamide]: the results for the pIC50 (in test [1]; in the test with THP-1 cells) were greater than 8.00 and 6.89 to 7.19, respectively.

`CCC[C@@H](Nc1nc(Nc2cccc3ncccc23)c(C(N)=O)cc1F)[C@H](C)N` [Example 006-307, 6-(((2S,3R)-2-aminohexan-3-yl)amino)-5-fluoro-2-(quinolin-5-ylamino)nicotinamide]: the pIC50 in test [1] is greater than 8.00; in the test with THP-1 cells it was 6.89 to 7.19.

For `CCC[C@@H](Nc1nc(Nc2ccc3scnc3c2)c(C(N)=O)cc1F)[C@H](C)N` [Example 006-308, 6-(((2S,3R)-2-aminohexan-3-yl)amino)-2-(benzo[d]thiazol-5-ylamino)-5-fluoronicotinamide], the pIC50 was greater than 8.00 in test [1] and 6.89 to 7.19 with THP-1 cells.

With `CCC[C@@H](Nc1nc(Nc2ccnc(OCC)c2)c(C(N)=O)cc1F)[C@H](C)N` [Example 006-309, 6-(((2S,3R)-2-aminohexan-3-yl)amino)-2-((2-ethoxypyridin-4-yl)amino)-5-fluoronicotinamide], the pIC50 in test [1] was greater than 8.00; in the test on THP-1 cells it was 6.89 to 7.19.

As to `CCC[C@@H](Nc1nc(Nc2ccnc(OCCOC)c2)c(C(N)=O)cc1F)[C@H](C)N` [Example 006-310, 6-(((2S,3R)-2-aminohexan-3-yl)amino)-5-fluoro-2-((2-(2-methoxyethoxy)pyridin-4-yl)amino)nicotinamide], the results for the pIC50 (in test [1]; with THP-1 cells) were greater than 8.00 and 6.89 to 7.19, respectively.

Turning to `CCC[C@@H](Nc1nc(Nc2cncc(C)c2)c(C(N)=O)cc1F)[C@H](C)N` [Example 006-312, 6-(((2S,3R)-2-aminohexan-3-yl)amino)-5-fluoro-2-((5-methylpyridin-3-yl)amino)nicotinamide], the pIC50 was greater than 8.00 in test [1] and 6.89 to 7.19 with THP-1 cells.

Regarding `CC[C@@H](Nc1nc(Nc2ccc3c(cnn3CCOC)c2)c(C(N)=O)cc1F)[C@H](C)N` [Example 006-313, 6-(((2S,3R)-2-aminopentan-3-yl)amino)-5-fluoro-2-((1-(2-methoxyethyl)-1H-indazol-5-yl)amino)nicotinamide], the pIC50 in test [1] was greater than 8.00; with THP-1 cells it was 6.89 to 7.19.
